Laboratory results taken from ChEMBL document CHEMBL1201862, “PubChem BioAssay data set” (2004).
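Growth conditions: 96-well plates. Treatment: test compound, 48 hours, 5 concentrations. Analysis: linear interpolation between bracketing concentrations; unreached endpoints set to highest concentration. GI50 marks 50% less growth.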 Activity calls are given as the source filed them. Cut-off read from the data, not from the text of the source: active = GI50 up to about 1.1 µM and inactive = higher.

Legend:
Experiment in all cases: NCI-60 cell line screen, 48 h
DMS-114 = tested on: DMS-114
HCT-15 = tested on: HCT-15
M19-MEL = tested on: M19-MEL
OVCAR-4 = tested on: OVCAR-4
EKVX = tested on: EKVX
SK-OV-3 = tested on: SK-OV-3
SW-620 = tested on: SW-620
IGROV-1 = tested on: IGROV-1
SNB-78 = tested on: SNB-78
SF-539 = tested on: SF-539
DMS-273 = tested on: DMS-273
SK-MEL-2 = tested on: SK-MEL-2
U-251 = tested on: U-251
XF498 = tested on: XF498
HOP-62 = tested on: HOP-62
SNB-75 = tested on: SNB-75
MOLT-4 = tested on: MOLT-4
HT-29 = tested on: HT-29
HOP-92 = tested on: HOP-92
OVCAR-3 = tested on: OVCAR-3
KM-20L2 = tested on: KM-20L2
M14 = tested on: M14
RPMI-8226 = tested on: RPMI-8226
UO-31 = tested on: UO-31
SK-MEL-28 = tested on: SK-MEL-28
LXFL 529 = tested on: LXFL 529
DLD-1 = tested on: DLD-1
A549 = tested on: A549
SK-MEL-5 = tested on: SK-MEL-5
NCI-H460 = tested on: NCI-H460
A498 = tested on: A498
ACHN = tested on: ACHN
UACC-257 = tested on: UACC-257
UACC-62 = tested on: UACC-62
OVCAR-5 = tested on: OVCAR-5
OVCAR-8 = tested on: OVCAR-8
SN12C = tested on: SN12C
SR = tested on: SR
Malme-3M = tested on: Malme-3M
SNB-19 = tested on: SNB-19
LOX IMVI = tested on: LOX IMVI
HOP-18 = tested on: HOP-18
KM12 = tested on: KM12
HCT-116 = tested on: HCT-116
NCI-H23 = tested on: NCI-H23
786-0 = tested on: 786-0
K562 = tested on: K562
SF-295 = tested on: SF-295
RXF 393 = tested on: RXF 393
SF-268 = tested on: SF-268
COLO 205 = tested on: COLO 205
HCC 2998 = tested on: HCC 2998
NCI-H226 = tested on: NCI-H226
TK-10 = tested on: TK-10
HL-60 = tested on: HL-60
CAKI-1 = tested on: CAKI-1
CCRF-CEM = tested on: CCRF-CEM
NCI-H522 = tested on: NCI-H522

In the case of `CC1=C(O)C(=O)c2cn(C)cc2C1=O`, the GI50 (DMS-114) is reported as > 100 µM (inactive), the GI50 (HCT-15) is reported as over 100 µM and the GI50 (M19-MEL) is reported as > 100 µM (inactive). The GI50 (OVCAR-4) was > 100 µM (inactive), the GI50 (EKVX) was > 100 µM (inactive) and the GI50 (SK-OV-3) was > 100 µM (inactive). For the same compound, the GI50 (SW-620) was > 100 µM (inactive), the GI50 (IGROV-1) was > 100 µM (inactive) and the GI50 (SNB-78) was > 100 µM (inactive). The GI50 (SF-539) was > 100 µM (inactive), the GI50 (DMS-273) was > 100 µM (inactive) and the GI50 (SK-MEL-2) was > 100 µM (inactive). The GI50 (U-251) was > 100 µM (inactive), the GI50 (XF498) was > 100 µM (inactive) and the GI50 (HOP-62) was > 100 µM (inactive). For the same compound, the GI50 (SNB-75) was > 100 µM (inactive), the GI50 (MOLT-4) was > 100 µM (inactive) and the GI50 (HT-29) was > 100 µM (inactive). The GI50 (HOP-92) was > 100 µM (inactive), the GI50 (OVCAR-3) was > 100 µM (inactive) and the GI50 (KM-20L2) was > 100 µM (inactive). For the same compound, the GI50 (M14) was > 100 µM (inactive), the GI50 (RPMI-8226) was > 100 µM (inactive) and the GI50 (UO-31) was > 100 µM (inactive). For the same compound, the GI50 (SK-MEL-28) was > 100 µM (inactive), the GI50 (LXFL 529) was > 100 µM (inactive) and the GI50 (DLD-1) was > 100 µM (inactive). For the same compound, the GI50 (A549) was > 100 µM (inactive), the GI50 (SK-MEL-5) was > 100 µM (inactive) and the GI50 (NCI-H460) was > 100 µM (inactive). For the same compound, the GI50 (A498) was > 100 µM (inactive), the GI50 (ACHN) was > 100 µM (inactive) and the GI50 (UACC-257) was > 100 µM (inactive). The GI50 (UACC-62) was > 100 µM (inactive), the GI50 (OVCAR-5) was > 100 µM (inactive) and the GI50 (OVCAR-8) was > 100 µM (inactive). The GI50 (SN12C) was > 100 µM (inactive), the GI50 (SR) was > 100 µM (inactive) and the GI50 (Malme-3M) was > 100 µM (inactive). For the same compound, the GI50 (SNB-19) was > 100 µM (inactive), the GI50 (LOX IMVI) was > 100 µM (inactive) and the GI50 (HOP-18) was > 100 µM (inactive). The GI50 (KM12) was > 100 µM (inactive), the GI50 (HCT-116) was > 100 µM (inactive) and the GI50 (NCI-H23) was > 100 µM (inactive). For the same compound, the GI50 (786-0) was > 100 µM (inactive), the GI50 (K562) was > 100 µM (inactive) and the GI50 (SF-295) was > 100 µM (inactive). For the same compound, the GI50 (RXF 393) was > 100 µM (inactive), the GI50 (SF-268) was > 100 µM (inactive) and the GI50 (COLO 205) was > 100 µM (inactive). For the same compound, the GI50 (HCC 2998) was > 100 µM (inactive), the GI50 (NCI-H226) was > 100 µM (inactive) and the GI50 (TK-10) was > 100 µM (inactive). For the same compound, the GI50 (HL-60) was > 100 µM (inactive), the GI50 (CAKI-1) was > 100 µM (inactive) and the GI50 (CCRF-CEM) was > 100 µM (inactive).

With `C1CN(P2(N3CC3)=NP(N3CC3)(N3CC3)=NP(N3CC3)(N3CC3)=N2)CCO1` (stereo not given) [FOTRETAMINE] the GI50 (DMS-114) was 80.7 µM (inactive), the GI50 (HCT-15) was over 100 µM and the GI50 (M19-MEL) was > 100 µM (inactive). The GI50 (OVCAR-4) was > 100 µM (inactive), the GI50 (EKVX) was > 100 µM (inactive) and the GI50 (SK-OV-3) was > 100 µM (inactive). The GI50 (SW-620) was > 100 µM (inactive), the GI50 (IGROV-1) was > 100 µM (inactive) and the GI50 (SNB-78) was > 100 µM (inactive). For the same compound, the GI50 (SF-539) was 44.8 µM (inactive), the GI50 (DMS-273) was 32.4 µM (inactive) and the GI50 (SK-MEL-2) was > 100 µM (inactive). For the same compound, the GI50 (U-251) was 71.6 µM (inactive), the GI50 (XF498) was > 100 µM (inactive) and the GI50 (HOP-62) was 26.6 µM (inactive). The GI50 (SNB-75) was 55.7 µM (inactive), the GI50 (MOLT-4) was 8.2 µM (inactive) and the GI50 (HT-29) was > 100 µM (inactive). For the same compound, the GI50 (HOP-92) was > 100 µM (inactive), the GI50 (NCI-H522) was > 100 µM (inactive) and the GI50 (OVCAR-3) was > 100 µM (inactive). For the same compound, the GI50 (KM-20L2) was > 100 µM (inactive), the GI50 (M14) was > 100 µM (inactive) and the GI50 (RPMI-8226) was > 95.7 µM (inactive). The GI50 (UO-31) was > 100 µM (inactive), the GI50 (SK-MEL-28) was > 100 µM (inactive) and the GI50 (LXFL 529) was > 100 µM (inactive). For the same compound, the GI50 (DLD-1) was > 53.5 µM (inactive), the GI50 (A549) was > 100 µM (inactive) and the GI50 (SK-MEL-5) was > 100 µM (inactive). For the same compound, the GI50 (NCI-H460) was 4.57 µM (inactive), the GI50 (A498) was > 100 µM (inactive) and the GI50 (ACHN) was 37.5 µM (inactive). For the same compound, the GI50 (UACC-257) was 83.8 µM (inactive), the GI50 (UACC-62) was > 56.6 µM (inactive) and the GI50 (OVCAR-5) was > 100 µM (inactive). The GI50 (OVCAR-8) was > 100 µM (inactive), the GI50 (SN12C) was > 68.2 µM (inactive) and the GI50 (SR) was 2.47 µM (inactive). The GI50 (Malme-3M) was > 100 µM (inactive), the GI50 (SNB-19) was > 100 µM (inactive) and the GI50 (LOX IMVI) was 72.4 µM (inactive). The GI50 (HOP-18) was > 100 µM (inactive), the GI50 (KM12) was > 100 µM (inactive) and the GI50 (HCT-116) was > 100 µM (inactive). For the same compound, the GI50 (NCI-H23) was 27.4 µM (inactive), the GI50 (786-0) was 55.3 µM (inactive) and the GI50 (K562) was > 77.8 µM (inactive). The GI50 (SF-295) was 54.7 µM (inactive), the GI50 (RXF 393) was > 100 µM (inactive) and the GI50 (SF-268) was 47.3 µM (inactive). For the same compound, the GI50 (COLO 205) was > 100 µM (inactive), the GI50 (HCC 2998) was > 100 µM (inactive) and the GI50 (NCI-H226) was > 85.5 µM (inactive). For the same compound, the GI50 (TK-10) was > 100 µM (inactive), the GI50 (HL-60) was 36.6 µM (inactive) and the GI50 (CAKI-1) was > 100 µM (inactive). The GI50 (CCRF-CEM) was 23 µM (inactive).
